Experimental data: ChEMBL document CHEMBL3885861, “Open TG-GATES”

Species on record: Rattus norvegicus
Assay: Open TG-GATES - Regimen: Daily Repeat
Type: toxicity, organism-based, Sprague-Dawley
Set-up: regimen Daily Repeat, gender Male, age 6 weeks
Conditions: in vivo, po, route gavage; for gamma-GTP / ALT / AST / CRE / Ca / DBIL / GLC / IP / K / LDH / Na / PL / RALB / TBIL / TC / TG / TP / BUN / Cl: tissue Plasma; for Bas / Eos / Fbg / Ht / Lym / MCHC / MCV / Mono / Neu / PT / Plat / RBC / Ret / WBC: tissue Blood; for KIDNEY_L / KIDNEY_R / KIDNEY_TOTAL: tissue Kidney
[1] = 80 mg/kg, 72 h, dose level Low, time 3 day
[2] = 80 mg/kg, […], dose level Low, time 7 day
[3] = 80 mg/kg, […], dose level Low, time 14 day
[4] = 80 mg/kg, […], dose level Low, time 28 day

`COc1ccc([C@@H]2Sc3ccccc3N(CCN(C)C)C(=O)[C@@H]2OC(C)=O)cc1` [DILTIAZEM] showed a gamma-GTP (0 mg/kg, […], dose level Control, time 28 day) of 1.2 IU/L, a TERMINAL_BW [1] of 214.1 g and a Bas [1] of 0%. It also gave an Eos [1] of 0.8%, a Fbg [1] of 270 mg/dL and a Ht [1] of 39.8%. The Lym [1] was 72.2%, the MCHC [1] was 32.8% and the MCV [1] was 64.2 fL. It also gave a Mono [1] of 2.8%, a Neu [1] of 23.2% and a PT [1] of 13.8 s. It also gave a Plat [1] of 118.7 x10_4/uL, an RBC [1] of 621.2 x10_4/ul and a Ret [1] of 8.5%. For the same molecule, the KIDNEY_L [1] was 0.9 g, the KIDNEY_R [1] was 1 g and the KIDNEY_TOTAL [1] was 1.9 g. It also gave an ALT [1] of 48.6 IU/L, an AST [1] of 68.2 IU/L and a CRE [1] of 0.2 mg/dL. For the same molecule, the Ca [1] was 11.1 mg/dL, the DBIL [1] was 0.02 mg/dL and the GLC [1] was 178 mg/dL. It also gave an IP [1] of 7.4 mg/dL, a K [1] of 4 meq/L and an LDH [1] of 78.4 IU/L. It also gave a Na [1] of 143.8 meq/L, a PL [1] of 161.2 mg/dL and an RALB [1] of 2.6 g/dL. It also gave a TBIL [1] of 0.026 mg/dL, a TC [1] of 86.4 mg/dL and a TG [1] of 128.8 mg/dL. The TP [1] was 5.5 g/dL, the gamma-GTP [1] was 1.2 IU/L and the TERMINAL_BW [2] was 255.5 g. For the same molecule, the TERMINAL_BW [3] was 315.7 g, the TERMINAL_BW [4] was 415.5 g and the Bas [2] was 0%. The Eos [2] was 1%, the Fbg [2] was 295 mg/dL and the Ht [2] was 41.2%. For the same molecule, the Lym [2] was 77.4%, the MCHC [2] was 33.2% and the MCV [2] was 65.1 fL. For the same molecule, the Mono [2] was 2.6%, the Neu [2] was 17.8% and the PT [2] was 14.2 s. The Plat [2] was 132.9 x10_4/uL, the RBC [2] was 632 x10_4/ul and the Ret [2] was 7.5%. It also gave a WBC [2] of 77.3 x10_2/uL, a Bas [3] of 0.4% and an Eos [3] of 0.6%. For the same molecule, the Fbg [3] was 311.2 mg/dL, the Ht [3] was 44.4% and the Lym [3] was 80.2%. It also gave an MCHC [3] of 32.9%, an MCV [3] of 63.6 fL and a Mono [3] of 2.4%. It also gave a PT [3] of 13.8 s, a Plat [3] of 139.6 x10_4/uL and an RBC [3] of 698.8 x10_4/ul. The Ret [3] was 5%, the WBC [3] was 116 x10_2/uL and the Bas [4] was 0.2%. It also gave an Eos [4] of 1.2%, a Fbg [4] of 313.4 mg/dL and a Ht [4] of 46.4%. The Lym [4] was 77.4%, the MCHC [4] was 33.9% and the MCV [4] was 57.8 fL. It also gave a Mono [4] of 2.2%, a Neu [4] of 18.4% and a PT [4] of 14 s. For the same molecule, the Plat [4] was 111.5 x10_4/uL, the RBC [4] was 803.2 x10_4/ul and the Ret [4] was 2.5%. For the same molecule, the KIDNEY_L [2] was 1.1 g, the KIDNEY_R [2] was 1.1 g and the KIDNEY_TOTAL [2] was 2.2 g. It also gave a KIDNEY_L [3] of 1.3 g, a KIDNEY_R [3] of 1.3 g and a KIDNEY_TOTAL [3] of 2.6 g. For the same molecule, the KIDNEY_L [4] was 1.4 g, the KIDNEY_R [4] was 1.4 g and the KIDNEY_TOTAL [4] was 2.8 g. It also gave an ALT [2] of 43.2 IU/L, an AST [2] of 68.6 IU/L and a BUN [2] of 15.4 mg/dL. It also gave a CRE [2] of 0.2 mg/dL, a Ca [2] of 11.2 mg/dL and a DBIL [2] of 0.014 mg/dL. For the same molecule, the GLC [2] was 192.4 mg/dL, the IP [2] was 8.3 mg/dL and the K [2] was 4 meq/L. The LDH [2] was 83.4 IU/L, the Na [2] was 143.6 meq/L and the PL [2] was 153.2 mg/dL. It also gave an RALB [2] of 2.8 g/dL, a TBIL [2] of 0.02 mg/dL and a TC [2] of 81.2 mg/dL. The TG [2] was 109.2 mg/dL, the TP [2] was 5.8 g/dL and the gamma-GTP [2] was 1 IU/L. For the same molecule, the ALT [3] was 45 IU/L, the AST [3] was 70.4 IU/L and the BUN [3] was 16.2 mg/dL. For the same molecule, the CRE [3] was 0.2 mg/dL, the Ca [3] was 10.9 mg/dL and the Cl [3] was 105.8 meq/L. The DBIL [3] was 0.016 mg/dL, the GLC [3] was 184.8 mg/dL and the IP [3] was 7 mg/dL. For the same molecule, the K [3] was 4.2 meq/L, the LDH [3] was 99.2 IU/L and the Na [3] was 144.6 meq/L. The PL [3] was 171.8 mg/dL, the RALB [3] was 2.8 g/dL and the TBIL [3] was 0.018 mg/dL. For the same molecule, the TC [3] was 81.8 mg/dL, the TG [3] was 169.6 mg/dL and the TP [3] was 6 g/dL. It also gave a gamma-GTP [3] of 1.2 IU/L, an ALT [4] of 40.8 IU/L and an AST [4] of 70.4 IU/L. It also gave a BUN [4] of 17.6 mg/dL, a CRE [4] of 0.2 mg/dL and a Ca [4] of 11.1 mg/dL. It also gave a Cl [4] of 108.4 meq/L, a DBIL [4] of 0.016 mg/dL and a GLC [4] of 202.8 mg/dL. The IP [4] was 6.6 mg/dL, the K [4] was 3.8 meq/L and the LDH [4] was 65 IU/L. The Na [4] was 146.6 meq/L, the PL [4] was 161.8 mg/dL and the RALB [4] was 2.9 g/dL. For the same molecule, the TBIL [4] was 0.016 mg/dL, the TC [4] was 79.2 mg/dL and the TG [4] was 147.4 mg/dL. It also gave a TP [4] of 6.5 g/dL, a gamma-GTP [4] of 1 IU/L and a TERMINAL_BW (240 mg/kg, 72 h, dose level Middle, time 3 day) of 216.9 g.
